Assay results: patent US20260166076A1, “PHARMACEUTICAL COMPOSITION CONTAINING ZINC POLYPHOSPHATE” (Kamui Pharma, Inc., priority 2022, published 2026)
Marks after values point to notes of the source that are not given here.

Experiments:
[1] = test system: DSS acute enteritis model; assay: DSS acute enteritis model (Example 6): intestinal length and histopathological evaluation; format: in vivo, BALB/c mice; details: DSS mice; polyphosphate 5 μg/head or TAC 60 μg/head oral daily day 0-7; day 8
Procedure: (§1) Dextran sodium sulfate (DSS) (MP-BioMedicals; 160110) was dissolved in distilled water to prepare 2% DSS solution. Chemical-induced enteritis was triggered in BALB/c mice (Charles River, Japan) by administering the solution as drinking water ad libitum for 5 days, and acute enteritis was developed while distilled water was supplied as drinking water ad libitum from day 6 to day 8 (necropsy day). Each polyphosphate (PPA-Na, PPA-Ca, PPA-Zn, or PPA-Mg; 5 μg/head each) or tacrolimus (TAC; 60 μg/head; Sigma CORPORATION, PHR1809) was orally administered daily from day 0 to day 7, and on day 8, the mice were subjected to various tests.
(§2) Mice were euthanized by cervical dislocation under isoflurane anesthesia, and the entire length of the colon was excised after opening the abdomen with scissors. The length of the excised colon was measured on a scale (FIG. 5).
(§3) Each colon tissue was Swiss rolled (Moolenbeek C, Lab Anim. 1981) and fixed in 10% formalin according to the procedure instructed by Moolenbeek C et al. The tissue was paraffin-embedded, thinly sliced to 4 μm, and stained with hematoxylin & eosin as a prepared specimen. The tissue was pathologically evaluated by inflammatory tissue scoring (Berg DJ, J Clin Invest, 1996) as described by Berg et al. The improvement rate (%) was calculated according to the following formula (Table 4).

[2] = test system: inflammatory cytokines (TNFα, IL1β, IL6, IFNγ); assay: DSS acute enteritis model (Example 6): RT-PCR of inflammatory cytokines in intestinal mucosa; format: in vivo, BALB/c mice; details: polyphosphate 5 μg/head or TAC 60 μg/head oral daily day 0-7, day 8
Procedure: as §1
(§4) The colon was cut and open in half using scissors, and the intestinal mucosa was detached with a slide glass. Intestinal mucosal tissue was soaked in 0.5 ml TRIzol (ThermoFisher Scientific K.K.), frozen in liquid nitrogen, and stored at −80° C. After thawing each stored sample at room temperature, RNA was recovered according to the procedure instructed by ThermoFisher Scientific K.K. The recovered total RNA was purified using an RNeasy Mini kit (Qiagen) and reverse-transcribed using a High-Capacity cDNA Reverse Transcription Kit (ThermoFisher Scientific K.K.). A PCR reaction was performed, using the recovered cDNA as a template, with EagleTaq Universal Master Mix with ROX (Roche). The primers (TaqMan Gene Expression Assays; ThermoFisher Scientific K.K.) used in the reaction are as follows. IL1β: Mm01336189, TNFα: Mm00443258, IL6: Mn00446190, IFNγ: Mm99999071. Changes in each gene expression level were standardized based on the expression level of Eukaryotic 18S rRNA Endogenous Control (ThermoFisher Scientific K.K.). Spectrum data was acquired using the Applied Biosystems 7300 Real Time PCR system.

[3] = test system: DSS acute enteritis model; assay: DSS acute enteritis model (Example 9, dose examination): intestinal length and histopathological evaluation; format: in vivo, BALB/c mice; details: DSS mice; 20 μg/head oral daily day 5-11; day 12
Procedure: as §2, §3
(§5) Dextran sodium sulfate (DSS) (MP-BioMedicals; 160110) was dissolved in distilled water to prepare 2% DSS solution. Chemical-induced enteritis was triggered in BALB/c mice (Charles River, Japan) by administering the solution as drinking water ad libitum for 5 days, and acute enteritis was developed while distilled water was supplied as drinking water ad libitum from day 5 to day 12 (necropsy day). Zinc polyphosphate PPA-Zn (1, 5, 20, or 50 μg/head each) or tacrolimus (20 μg/head) was orally administered daily from day 5 to day 11, and on day 12, the mice were subjected to various tests (FIG. 8).
The intestinal length after zinc polyphosphate treatment was measured according to Example 6, and the improvement rate was calculated (FIG. 8).
Each tissue was pathologically evaluated by inflammatory tissue scoring according to Example 6, and the improvement rate was calculated (Table 6).

[4] = test system: inflammatory cytokines (IL1β, TNFα, IL6, IFNγ, IL17A); assay: DSS acute enteritis model (Example 9, dose examination): RT-PCR of cytokine mRNA; format: in vivo, BALB/c mice; details: 20 μg/head oral daily day 5-11, day 12
Procedure: as §4, §5
(§6) The mRNA expression levels of various cytokines (IL1β, TNFα, IL6, IFNγ, and IL17A) were analyzed according to Example 6, and the improvement rate was calculated (Table 6). The primers (TaqMan Gene Expression Assays; ThermoFisher Scientific K.K.) used in the reaction are as follows. IL1β: Mm01336189, TNFα: Mm00443258, IL6: Mn00446190, IFNγ: Mm99999071, IL17A: Mm00439618.

[5] = test system: DSS acute enteritis model; assay: DSS acute enteritis model (Example 10, after long-term storage): intestinal length and histopathological evaluation; format: in vivo; details: DSS mice, day 12; PPA-Zn initial (not stored) or TAC
Procedure: as §2, §3
(§7) Zinc polyphosphate Test 15-2 was stored under a condition at 60° C. and 75% RH for 8 weeks according to Example 2. The zinc polyphosphate Test 15-2 after storage was used to evaluate efficacy in the DSS acute enteritis model, measure the intestinal length, perform RT-PCR, and evaluate the histopathological severity according to Example 6 (Table 7, FIG. 9).
(§8) DDS acute enteritis model mice were generated according to Example 6 and subjected to various tests on day 12 (FIG. 9).
The intestinal length after zinc polyphosphate treatment was measured according to Example 6, and the improvement rate was calculated (FIG. 9).
Each tissue was pathologically evaluated by inflammatory tissue scoring according to Example 6, and the improvement rate was calculated (Table 7).

[6] = test system: inflammatory cytokines (IL1β, TNFα, IL6, IFNγ, IL17A); assay: DSS acute enteritis model (Example 10, after long-term storage): RT-PCR of cytokine mRNA; format: in vivo, mice; details: day 12, PPA-Zn initial (not stored) or TAC
Procedure: as §4, §7, §8
as §6, with “7).” for “6).”

[7] = relative value when control is set to 1

Compound: C=CC[C@@H]1/C=C(\C)C[C@H](C)C[C@H](OC)[C@H]2O[C@@](O)(C(=O)C(=O)N3CCCC[C@H]3C(=O)O[C@H](/C(C)=C/[C@@H]3CC[C@@H](O)[C@H](OC)C3)[C@H](C)[C@@H](O)CC1=O)[C@H](C)C[C@@H]2OC [TAC, tacrolimus]
- Improvement rate Histological severity [1]: 40% *
- Improvement rate Intestinal length [1]: 43% *
- Macro findings Intestinal length [1]: 109.8 ± 6.5 mm
- Micro findings Histological severity [1]: 1.8 ± 0.4
- Improvement rate IFNγ ([2]; DSS mice): 98%
- Improvement rate IL1β ([2]; DSS mice): 88% *
- Improvement rate IL6 ([2]; DSS mice): 94%
- Improvement rate TNFα ([2]; DSS mice): 85% *
- Changes in inflammatory cytokines IFNγ [2, 7]: 2 ± 0.9
- Changes in inflammatory cytokines IL1β [2, 7]: 6.7 ± 6.3
- Changes in inflammatory cytokines IL6 [2, 7]: 5.1 ± 2.3
- Changes in inflammatory cytokines TNFα [2, 7]: 2.2 ± 0.5
- Improvement rate Histological severity [3]: 27%
- Improvement rate Intestinal length [3]: 9%
- Macro findings Intestinal length [3]: 99.4 ± 12.6 mm
- Micro findings Histological sovority [3]: 2.4 ± 1.3
- Improvement rate IFNγ ([4]; DSS mice): 63%
- Improvement rate IL1β ([4]; DSS mice): 31%
- Improvement rate IL6 ([4]; DSS mice): 73%
- Improvement rate IL17A ([4]; DSS mice): 66%
- Improvement rate TNFα ([4]; DSS mice): 39%
- Changes in inflammatory cytokines IFNγ [4, 7]: 1.5 ± 0.8
- Changes in inflammatory cytokines IL1β [4, 7]: 85.9 ± 117.1
- Changes in inflammatory cytokines IL6 [4, 7]: 27.2 ± 52.4
- Changes in inflammatory cytokines IL17A [4, 7]: 53.9 ± 77
- Changes in inflammatory cytokines TNFα [4, 7]: 5.4 ± 4.5
- Improvement rate Histological severity [5]: 42%
- Improvement rate Intestinal length [5]: 12%
- Macro findings Intestinal length [5]: 89 ± 4.5 mm
- Micro findings Histological severity [5]: 2.3 ± 0.5
- Improvement rate IFNγ ([6]; DSS mice): 79%
- Improvement rate IL1β ([6]; DSS mice): 44%
- Improvement rate IL6 ([6]; DSS mice): 76%
- Improvement rate IL17A ([6]; DSS mice): 80%
- Improvement rate TNFα ([6]; DSS mice): 50%
- Changes in inflammatory cytokines IFNγ [6, 7]: 12.1 ± 27.7
- Changes in inflammatory cytokines IL1β [6, 7]: 201.1 ± 211.7
- Changes in inflammatory cytokines IL6 [6, 7]: 49.5 ± 55.5
- Changes in inflammatory cytokines IL17A [6, 7]: 192.9 ± 321.9
- Changes in inflammatory cytokines TNFα [6, 7]: 8.2 ± 5
